Source: ChEMBL document CHEMBL4507303, “Data for DCP probe TP-004” (2021)

Columns and labels:
[1] = target: Proto-oncogene tyrosine-protein kinase ROS (Homo sapiens) (UniProt P08922); conditions: Compound concentration 1000.0 nM
[2] = system: Receptor-type tyrosine-protein kinase FLT3 (Homo sapiens), P36888 [D835V]; conditions: Compound concentration 1000.0 nM
[3] = target: Tyrosine-protein kinase Fes/Fps (Homo sapiens) (UniProt P07332); conditions: Compound concentration 1000.0 nM
[4] = target: Serine/threonine-protein kinase PLK4 (Homo sapiens) (UniProt O00444); conditions: Compound concentration 1000.0 nM
[5] = target: Calcium/calmodulin-dependent protein kinase type II subunit delta (Homo sapiens) (UniProt Q13557); conditions: Compound concentration 1000.0 nM
[6] = target: Mitogen-activated protein kinase kinase kinase 9 (Homo sapiens) (UniProt P80192); conditions: Compound concentration 1000.0 nM
[7] = target: Serine/threonine-protein kinase mTOR (Homo sapiens) (UniProt P42345); conditions: Compound concentration 1000.0 nM
[8] = target: 1-phosphatidylinositol 3-phosphate 5-kinase (Homo sapiens) (UniProt Q9Y2I7); conditions: Compound concentration 1000.0 nM
1-phosphatidylinositol 3-phosphate 5-kinase (Homo sapiens), sequence (Q9Y2I7 whole entry): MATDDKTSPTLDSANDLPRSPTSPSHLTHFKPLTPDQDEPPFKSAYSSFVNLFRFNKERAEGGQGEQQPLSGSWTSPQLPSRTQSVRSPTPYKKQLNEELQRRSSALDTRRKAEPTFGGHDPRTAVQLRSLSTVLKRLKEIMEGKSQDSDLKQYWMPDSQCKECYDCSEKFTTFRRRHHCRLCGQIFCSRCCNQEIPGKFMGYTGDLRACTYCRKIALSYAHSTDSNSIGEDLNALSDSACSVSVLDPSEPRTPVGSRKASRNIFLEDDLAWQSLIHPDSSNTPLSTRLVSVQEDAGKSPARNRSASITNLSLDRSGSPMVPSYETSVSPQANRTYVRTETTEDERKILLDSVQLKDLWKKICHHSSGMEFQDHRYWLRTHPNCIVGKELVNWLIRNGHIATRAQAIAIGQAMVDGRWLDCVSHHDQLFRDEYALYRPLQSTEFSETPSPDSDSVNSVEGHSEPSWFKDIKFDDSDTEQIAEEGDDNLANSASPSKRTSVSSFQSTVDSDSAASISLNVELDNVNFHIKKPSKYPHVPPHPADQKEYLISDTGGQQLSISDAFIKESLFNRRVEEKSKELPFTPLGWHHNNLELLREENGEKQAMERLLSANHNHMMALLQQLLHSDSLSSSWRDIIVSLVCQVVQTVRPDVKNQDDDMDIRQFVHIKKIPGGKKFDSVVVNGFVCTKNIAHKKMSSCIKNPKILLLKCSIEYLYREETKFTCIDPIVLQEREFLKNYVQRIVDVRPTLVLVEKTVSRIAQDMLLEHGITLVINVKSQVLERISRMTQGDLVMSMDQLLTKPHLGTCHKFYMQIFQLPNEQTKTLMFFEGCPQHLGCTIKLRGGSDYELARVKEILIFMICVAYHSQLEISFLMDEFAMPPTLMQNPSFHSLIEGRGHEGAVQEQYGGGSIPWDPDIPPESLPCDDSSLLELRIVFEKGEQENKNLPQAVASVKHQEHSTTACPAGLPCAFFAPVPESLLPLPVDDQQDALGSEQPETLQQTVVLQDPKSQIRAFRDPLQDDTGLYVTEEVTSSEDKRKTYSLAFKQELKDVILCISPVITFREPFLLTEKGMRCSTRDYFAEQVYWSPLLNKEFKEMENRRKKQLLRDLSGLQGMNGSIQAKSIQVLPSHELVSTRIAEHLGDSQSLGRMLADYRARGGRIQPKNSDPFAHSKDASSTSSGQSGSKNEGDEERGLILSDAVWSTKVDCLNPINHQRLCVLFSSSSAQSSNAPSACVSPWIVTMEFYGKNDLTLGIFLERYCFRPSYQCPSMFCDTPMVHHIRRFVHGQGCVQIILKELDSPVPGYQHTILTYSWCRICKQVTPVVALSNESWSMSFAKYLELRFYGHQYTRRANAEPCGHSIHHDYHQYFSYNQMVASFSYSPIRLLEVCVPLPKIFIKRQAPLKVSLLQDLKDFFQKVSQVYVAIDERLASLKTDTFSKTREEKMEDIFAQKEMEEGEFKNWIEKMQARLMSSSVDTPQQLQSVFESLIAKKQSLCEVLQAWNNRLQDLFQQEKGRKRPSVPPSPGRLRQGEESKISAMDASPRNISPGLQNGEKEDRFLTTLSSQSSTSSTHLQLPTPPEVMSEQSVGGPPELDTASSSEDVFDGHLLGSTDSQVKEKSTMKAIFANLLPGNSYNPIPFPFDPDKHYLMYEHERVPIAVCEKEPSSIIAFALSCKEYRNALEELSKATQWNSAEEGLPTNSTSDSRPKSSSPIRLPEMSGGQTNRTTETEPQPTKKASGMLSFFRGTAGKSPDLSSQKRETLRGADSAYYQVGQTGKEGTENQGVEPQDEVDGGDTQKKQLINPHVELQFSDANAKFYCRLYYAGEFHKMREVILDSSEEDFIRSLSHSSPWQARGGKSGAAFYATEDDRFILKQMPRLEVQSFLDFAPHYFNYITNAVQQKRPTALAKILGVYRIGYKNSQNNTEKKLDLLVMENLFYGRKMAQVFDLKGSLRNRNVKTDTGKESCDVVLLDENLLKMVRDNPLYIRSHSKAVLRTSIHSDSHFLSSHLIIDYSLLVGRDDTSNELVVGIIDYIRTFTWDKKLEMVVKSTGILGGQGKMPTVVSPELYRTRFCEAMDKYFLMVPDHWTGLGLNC

[9] = target: Atypical kinase COQ8A, mitochondrial (Homo sapiens) (UniProt Q8NI60); conditions: Compound concentration 1000.0 nM
Atypical kinase COQ8A, mitochondrial (Homo sapiens), sequence (Q8NI60 163-647 limits assumed): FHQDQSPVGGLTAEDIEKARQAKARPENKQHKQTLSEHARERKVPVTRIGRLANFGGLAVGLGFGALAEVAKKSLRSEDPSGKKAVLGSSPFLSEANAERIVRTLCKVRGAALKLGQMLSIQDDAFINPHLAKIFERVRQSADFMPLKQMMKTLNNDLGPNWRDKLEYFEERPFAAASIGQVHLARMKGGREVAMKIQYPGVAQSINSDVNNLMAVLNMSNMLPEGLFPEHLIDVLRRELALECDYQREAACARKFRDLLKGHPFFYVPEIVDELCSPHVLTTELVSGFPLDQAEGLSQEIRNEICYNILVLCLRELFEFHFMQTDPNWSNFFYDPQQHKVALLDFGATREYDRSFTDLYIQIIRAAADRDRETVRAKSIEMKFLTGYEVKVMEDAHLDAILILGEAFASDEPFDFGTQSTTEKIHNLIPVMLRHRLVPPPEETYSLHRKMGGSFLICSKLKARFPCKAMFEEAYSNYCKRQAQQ

[10] = target: High affinity nerve growth factor receptor (Homo sapiens) (UniProt P04629); conditions: Compound concentration 1000.0 nM
[11] = target: GABA-A receptor; anion channel (Rattus norvegicus) (UniProt O09028+P15431+P18506+P18508+P19969+P20236+P23574+P23576+P28471+P28473+P30191+P62813+P63079+P63138+Q91ZM7+Q9ES14); conditions: Compound concentration 10.0 uM
[12] = target: Calcium/calmodulin-dependent protein kinase kinase 2 (Homo sapiens) (UniProt Q96RR4); conditions: Compound concentration 1000.0 nM
[13] = system: Phosphatidylinositol 4,5-bisphosphate 3-kinase catalytic subunit alpha isoform (Homo sapiens), P42336 [H1047L]; conditions: Compound concentration 1000.0 nM
[14] = target: Ephrin type-A receptor 7 (Homo sapiens) (UniProt Q15375); conditions: Compound concentration 1000.0 nM
[15] = target: Activin receptor type-1B (Homo sapiens) (UniProt P36896); conditions: Compound concentration 1000.0 nM
Activin receptor type-1B (Homo sapiens), sequence (P36896 whole entry): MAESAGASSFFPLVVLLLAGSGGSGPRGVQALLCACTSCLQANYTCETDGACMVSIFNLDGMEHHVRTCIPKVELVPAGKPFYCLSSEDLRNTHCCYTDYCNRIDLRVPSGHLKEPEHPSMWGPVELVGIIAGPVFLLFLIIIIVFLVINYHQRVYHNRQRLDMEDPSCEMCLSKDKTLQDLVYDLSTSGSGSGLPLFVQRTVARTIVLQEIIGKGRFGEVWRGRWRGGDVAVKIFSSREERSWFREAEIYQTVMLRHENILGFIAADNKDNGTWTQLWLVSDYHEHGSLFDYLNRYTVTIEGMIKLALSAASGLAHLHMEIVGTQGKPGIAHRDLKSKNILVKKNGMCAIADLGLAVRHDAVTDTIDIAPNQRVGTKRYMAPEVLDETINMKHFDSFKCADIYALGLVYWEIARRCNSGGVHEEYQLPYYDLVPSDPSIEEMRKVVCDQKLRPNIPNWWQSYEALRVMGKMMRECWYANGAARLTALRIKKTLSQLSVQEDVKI

[16] = target: Activated CDC42 kinase 1 (Homo sapiens) (UniProt Q07912); conditions: Compound concentration 1000.0 nM
[17] = target: Receptor-type tyrosine-protein kinase FLT3 (Homo sapiens) (UniProt P36888); conditions: Compound concentration 1000.0 nM
[18] = target: Dual specificity mitogen-activated protein kinase kinase 4 (Homo sapiens) (UniProt P45985); conditions: Compound concentration 1000.0 nM
Dual specificity mitogen-activated protein kinase kinase 4 (Homo sapiens), sequence (P45985 whole entry): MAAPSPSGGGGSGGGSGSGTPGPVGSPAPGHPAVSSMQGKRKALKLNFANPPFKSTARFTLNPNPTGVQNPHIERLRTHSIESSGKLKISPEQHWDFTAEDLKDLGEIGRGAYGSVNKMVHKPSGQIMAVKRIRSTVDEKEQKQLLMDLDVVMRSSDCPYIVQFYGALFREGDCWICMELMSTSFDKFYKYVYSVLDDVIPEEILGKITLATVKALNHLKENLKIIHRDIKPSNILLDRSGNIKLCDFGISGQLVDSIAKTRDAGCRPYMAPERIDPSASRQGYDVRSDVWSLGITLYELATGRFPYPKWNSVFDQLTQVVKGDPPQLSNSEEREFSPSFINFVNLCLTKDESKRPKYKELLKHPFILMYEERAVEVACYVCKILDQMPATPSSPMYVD

[19] = target: 5-hydroxytryptamine receptor 5A (Homo sapiens) (UniProt P47898); conditions: Compound concentration 10.0 uM
[20] = target: Calcium-dependent protein kinase 1 (Plasmodium falciparum) (UniProt P62344); conditions: Compound concentration 1000.0 nM
[21] = target: Serine/threonine-protein kinase 25 (Homo sapiens) (UniProt O00506); conditions: Compound concentration 1000.0 nM
[22] = target: Serine/threonine-protein kinase PLK2 (Homo sapiens) (UniProt Q9NYY3); conditions: Compound concentration 1000.0 nM
[23] = system: Mast/stem cell growth factor receptor Kit (Homo sapiens), P10721 [A829P]; conditions: Compound concentration 1000.0 nM
[24] = target: Beta-2 adrenergic receptor (Homo sapiens) (UniProt P07550); conditions: Compound concentration 10.0 uM
[25] = system: Tyrosine-protein kinase ABL1 (Homo sapiens), P00519 [F317L]; conditions: Compound concentration 1000.0 nM
[26] = target: Sigma non-opioid intracellular receptor 1 (Homo sapiens) (UniProt Q99720); conditions: Compound concentration 10.0 uM
Sigma non-opioid intracellular receptor 1 (Homo sapiens), sequence (Q99720 whole entry): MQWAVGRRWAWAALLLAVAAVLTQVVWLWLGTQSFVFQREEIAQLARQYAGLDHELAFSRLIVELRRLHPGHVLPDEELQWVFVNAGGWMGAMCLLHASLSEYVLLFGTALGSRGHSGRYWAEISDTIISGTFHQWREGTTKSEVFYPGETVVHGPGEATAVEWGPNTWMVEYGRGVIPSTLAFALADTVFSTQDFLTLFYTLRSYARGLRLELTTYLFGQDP

[27] = target: Mitogen-activated protein kinase kinase kinase 2 (Homo sapiens) (UniProt Q9Y2U5); conditions: Compound concentration 1000.0 nM
[28] = target: Serine/threonine-protein kinase OSR1 (Homo sapiens) (UniProt O95747); conditions: Compound concentration 1000.0 nM
[29] = target: Serine/threonine-protein kinase/endoribonuclease IRE1 (Homo sapiens) (UniProt O75460); conditions: Compound concentration 1000.0 nM
[30] = target: Tyrosine-protein kinase Blk (Homo sapiens) (UniProt P51451); conditions: Compound concentration 1000.0 nM
Tyrosine-protein kinase Blk (Homo sapiens), sequence (P51451 2-505 limits assumed): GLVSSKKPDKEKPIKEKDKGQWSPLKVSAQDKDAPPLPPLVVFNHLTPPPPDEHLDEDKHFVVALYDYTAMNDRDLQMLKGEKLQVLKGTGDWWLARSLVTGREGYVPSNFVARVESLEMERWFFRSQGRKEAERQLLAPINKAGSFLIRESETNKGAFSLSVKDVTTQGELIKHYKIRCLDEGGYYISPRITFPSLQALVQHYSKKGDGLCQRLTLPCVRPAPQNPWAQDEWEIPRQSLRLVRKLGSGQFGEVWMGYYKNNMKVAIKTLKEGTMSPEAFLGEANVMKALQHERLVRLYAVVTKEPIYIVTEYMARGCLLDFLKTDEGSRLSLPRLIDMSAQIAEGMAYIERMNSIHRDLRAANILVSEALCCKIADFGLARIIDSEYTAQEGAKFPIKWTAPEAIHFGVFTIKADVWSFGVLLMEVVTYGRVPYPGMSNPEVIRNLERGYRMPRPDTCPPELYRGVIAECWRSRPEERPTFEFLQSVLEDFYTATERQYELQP

[31] = target: Angiopoietin-1 receptor (Homo sapiens) (UniProt Q02763); conditions: Compound concentration 1000.0 nM
[32] = target: Mitogen-activated protein kinase kinase kinase 1 (Homo sapiens) (UniProt Q13233); conditions: Compound concentration 1000.0 nM
[33] = target: Proto-oncogene tyrosine-protein kinase receptor Ret (Homo sapiens) (UniProt P07949); conditions: Compound concentration 1000.0 nM
[34] = target: Cyclin-dependent kinase 8 (Homo sapiens) (UniProt P49336); conditions: Compound concentration 1000.0 nM
[35] = target: Phosphatidylinositol 5-phosphate 4-kinase type-2 gamma (Homo sapiens) (UniProt Q8TBX8); conditions: Compound concentration 1000.0 nM
[36] = target: Interleukin-1 receptor-associated kinase 1 (Homo sapiens) (UniProt P51617); conditions: Compound concentration 1000.0 nM
Interleukin-1 receptor-associated kinase 1 (Homo sapiens), sequence (P51617 whole entry, looked up): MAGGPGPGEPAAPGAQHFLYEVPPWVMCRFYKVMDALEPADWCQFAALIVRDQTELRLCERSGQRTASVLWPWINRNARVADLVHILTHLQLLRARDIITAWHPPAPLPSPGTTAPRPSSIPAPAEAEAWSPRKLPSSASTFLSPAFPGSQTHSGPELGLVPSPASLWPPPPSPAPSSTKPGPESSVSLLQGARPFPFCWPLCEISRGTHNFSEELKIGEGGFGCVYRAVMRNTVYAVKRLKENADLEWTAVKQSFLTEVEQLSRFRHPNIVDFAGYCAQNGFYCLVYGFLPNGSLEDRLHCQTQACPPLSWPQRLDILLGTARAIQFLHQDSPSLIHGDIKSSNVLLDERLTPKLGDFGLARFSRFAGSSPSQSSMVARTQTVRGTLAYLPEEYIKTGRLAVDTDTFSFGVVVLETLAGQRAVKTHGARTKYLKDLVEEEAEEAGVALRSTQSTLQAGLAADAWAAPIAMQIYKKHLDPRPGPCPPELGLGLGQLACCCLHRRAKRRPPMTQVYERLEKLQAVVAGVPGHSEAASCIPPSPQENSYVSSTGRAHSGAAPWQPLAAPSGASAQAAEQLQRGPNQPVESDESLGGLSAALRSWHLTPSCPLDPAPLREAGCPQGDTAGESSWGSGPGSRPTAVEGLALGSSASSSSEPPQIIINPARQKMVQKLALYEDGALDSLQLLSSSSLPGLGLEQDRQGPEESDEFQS

[37] = target: Dual specificity testis-specific protein kinase 1 (Homo sapiens) (UniProt Q15569); conditions: Compound concentration 1000.0 nM
[38] = target: Dual specificity mitogen-activated protein kinase kinase 7 (Homo sapiens) (UniProt O14733); conditions: Compound concentration 1000.0 nM
[39] = target: Fibroblast growth factor receptor 3 (Homo sapiens) (UniProt P22607); conditions: Compound concentration 1000.0 nM
[40] = target: Serine/threonine-protein kinase MRCK alpha (Homo sapiens) (UniProt Q5VT25); conditions: Compound concentration 1000.0 nM
[41] = target: Muscarinic acetylcholine receptor M5 (Homo sapiens) (UniProt P08912); conditions: Compound concentration 10.0 uM
[42] = target: Homeodomain-interacting protein kinase 3 (Homo sapiens) (UniProt Q9H422); conditions: Compound concentration 1000.0 nM
[43] = target: Calcium/calmodulin-dependent protein kinase kinase 1 (Homo sapiens) (UniProt Q8N5S9); conditions: Compound concentration 1000.0 nM

Cc1nc(N2CC[C@@H](O)C2)ncc1-c1cc(C(F)(F)F)cc2[nH]ncc12 [TP-004]
residual activity [1]: 86%
residual activity [2]: 58%
residual activity [3]: 100%
residual activity [4]: 93%
residual activity [5]: 100%
residual activity [6]: 100%
residual activity [7]: 100%
residual activity [8]: 88%
residual activity [9]: 100%
residual activity [10]: 56%
inhibition [11]: 54.3%
residual activity [12]: 100%
residual activity [13]: 93%
residual activity [14]: 63%
residual activity [15]: 100%
residual activity [16]: 90%
residual activity [17]: 67%
residual activity [18]: 97%
inhibition [19]: -2.1%
residual activity [20]: 100%
residual activity [21]: 100%
residual activity [22]: 76%
residual activity [23]: 60%
inhibition [24]: -2.23%
residual activity [25]: 100%
inhibition [26]: 45.5%
residual activity [27]: 60%
residual activity [28]: 67%
residual activity [29]: 86%
residual activity [30]: 100%
residual activity [31]: 100%
residual activity [32]: 60%
residual activity [33]: 84%
residual activity [34]: 88%
residual activity [35]: 100%
residual activity [36]: 100%
residual activity [37]: 94%
residual activity [38]: 64%
residual activity [39]: 100%
residual activity [40]: 100%
inhibition [41]: 0.643%
residual activity [42]: 54%
residual activity [43]: 100%
